Test results taken from the supplement of paper PMC10307832.

Legend:
Experiment in all cases: relative viability (nuclei count vs DMSO), 5 days (fraction); higher = more cells survive
Tozasertib + Phenformin = compound: Cc1cc(Nc2cc(N3CCN(C)CC3)nc(Sc3ccc(NC(=O)C4CC4)cc3)n2)n[nH]1 [Tozasertib] + N=C(N)NC(=N)NCCc1ccccc1 [Phenformin] (partner 250 µM)
Procedure, shortened: (§1)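 Five library-drug doses in √10 steps were combined with a fixed anchor-drug dose, or a single drug was given alone, by pin tool to lung cancer cell lines in 1536-well plates the day after seeding. Nuclei were stained and counted after 5 days. Relative viability is the nuclei count in treated wells over that in vehicle wells, taken as the median of duplicate plates.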

Tozasertib + Pemetrexed = compound: Cc1cc(Nc2cc(N3CCN(C)CC3)nc(Sc3ccc(NC(=O)C4CC4)cc3)n2)n[nH]1 [Tozasertib] + Nc1nc2[nH]cc(CCc3ccc(C(=O)N[C@@H](CCC(=O)O)C(=O)O)cc3)c2c(=O)[nH]1 [Pemetrexed] (partner 0.2 µM)
Procedure, shortened: as §1

Tozasertib + Navitoclax = compound: Cc1cc(Nc2cc(N3CCN(C)CC3)nc(Sc3ccc(NC(=O)C4CC4)cc3)n2)n[nH]1 [Tozasertib] + CC1(C)CCC(c2ccc(Cl)cc2)=C(CN2CCN(c3ccc(C(=O)NS(=O)(=O)c4ccc(N[C@H](CCN5CCOCC5)CSc5ccccc5)c(S(=O)(=O)C(F)(F)F)c4)cc3)CC2)C1 [Navitoclax] (partner 0.5 µM)
Procedure, shortened: as §1

Tozasertib + AZD7762 = compound: Cc1cc(Nc2cc(N3CCN(C)CC3)nc(Sc3ccc(NC(=O)C4CC4)cc3)n2)n[nH]1 [Tozasertib] + NC(=O)Nc1cc(-c2cccc(F)c2)sc1C(=O)N[C@H]1CCCNC1 [AZD7762] (partner 0.2 µM)
Procedure, shortened: as §1

Tozasertib + Bortezomib = compound: Cc1cc(Nc2cc(N3CCN(C)CC3)nc(Sc3ccc(NC(=O)C4CC4)cc3)n2)n[nH]1 [Tozasertib] + CC(C)C[C@H](NC(=O)[C@H](Cc1ccccc1)NC(=O)c1cnccn1)B(O)O [Bortezomib] (partner 0.002 µM)
Procedure, shortened: as §1

Cell Line | relative viability (Tozasertib + Phenformin; first compound 0.004 µM) | relative viability (Tozasertib + Phenformin; first compound 0.01265 µM) | relative viability (Tozasertib + Phenformin; first compound 0.04 µM) | relative viability (Tozasertib + Phenformin; first compound 0.1265 µM) | relative viability (Tozasertib + Pemetrexed; first compound 0.004 µM) | relative viability (Tozasertib + Pemetrexed; first compound 0.01265 µM) | relative viability (Tozasertib + Pemetrexed; first compound 0.04 µM) | relative viability (Tozasertib + Pemetrexed; first compound 0.1265 µM) | relative viability (Tozasertib + Navitoclax; first compound 0.004 µM) | relative viability (Tozasertib + Navitoclax; first compound 0.01265 µM) | relative viability (Tozasertib + Navitoclax; first compound 0.04 µM) | relative viability (Tozasertib + Navitoclax; first compound 0.1265 µM) | relative viability (Tozasertib + AZD7762; first compound 0.004 µM) | relative viability (Tozasertib + AZD7762; first compound 0.01265 µM) | relative viability (Tozasertib + AZD7762; first compound 0.04 µM) | relative viability (Tozasertib + AZD7762; first compound 0.1265 µM) | relative viability (Tozasertib + Bortezomib; first compound 0.004 µM) | relative viability (Tozasertib + Bortezomib; first compound 0.01265 µM) | relative viability (Tozasertib + Bortezomib; first compound 0.04 µM) | relative viability (Tozasertib + Bortezomib; first compound 0.1265 µM)
NCI-H1944 | 0.203 | 0.211 | 0.211 | 0.167 | 0.577 | 0.579 | 0.588 | 0.537 | 0.96 | 1.05 | 1.02 | 0.695 | 0.403 | 0.479 | 0.443 | 0.327 | – | – | – | –
NCI-H2009 | 0.5 | 0.455 | 0.476 | 0.477 | 1 | 1.03 | 0.985 | 0.986 | 1.21 | 1.16 | 1.17 | 1.17 | – | – | – | – | 1.12 | 0.938 | 1.08 | 0.811
NCI-H2023 | 0.393 | 0.393 | 0.407 | 0.258 | 0.239 | 0.241 | 0.246 | 0.213 | 1.04 | 0.983 | 1.05 | 0.924 | – | – | – | – | 1.2 | 0.905 | 1.16 | –
NCI-H2170 | 0.33 | 0.364 | 0.436 | 0.366 | 0.289 | 0.241 | 0.293 | 0.271 | 0.556 | 0.565 | 0.583 | 0.557 | 0.81 | 0.893 | 0.848 | 0.788 | – | – | – | –
NCI-H2228 | 0.375 | 0.298 | 0.254 | 0.132 | 0.319 | 0.32 | 0.376 | 0.322 | 0.717 | – | 1.23 | 1.06 | – | – | – | – | 1.31 | – | – | 0.434
NCI-H2342 | 0.635 | 0.607 | 0.57 | 0.465 | 0.809 | 0.778 | 0.744 | 0.759 | – | – | – | – | 0.578 | 0.532 | 0.514 | 0.398 | – | – | – | –
SK-LU-1 | 0.55 | 0.569 | 0.578 | 0.324 | 1.05 | 0.961 | 1.09 | 0.964 | 0.894 | 0.939 | 0.981 | 0.635 | – | – | – | – | 1.18 | 1.07 | 1.27 | 0.813
SK-MES-1 | 0.691 | 0.642 | 0.71 | 0.696 | 0.907 | 0.892 | 1.02 | 0.769 | 1.17 | 1.23 | 1.4 | 1.02 | – | – | – | – | – | – | – | –
SW 1573 | 0.35 | 0.393 | 0.361 | 0.284 | 0.793 | 0.796 | 0.848 | 0.212 | 1.1 | 1.06 | 1.15 | 0.816 | – | – | – | – | 1.15 | 1.07 | 1.22 | 0.744
UMC-11 | 0.372 | 0.308 | 0.3 | 0.171 | 0.852 | 0.809 | 0.78 | 0.26 | 0.381 | 0.295 | 0.303 | 0.13 | – | – | – | – | 0.729 | 0.621 | 0.768 | 0.186
